# In paper PMC3948684, “Approaches to Improve the Oral Bioavailability and Effects of Novel Anticancer Drugs Berberine and Betulinic Acid” (PLoS ONE, 2014):
# How the values were obtained:
# [1] = In vitro Caco-2 permeability study; settings: human, Caco-2, pH 5.8
# Experimental: Caco-2 cells (passage #29) were cultured at 37°C with culture medium replaced every 2 days in an atmosphere of 5% CO2 and 95% relative humidity. Cells were harvested upon reaching approximately 80-90% confluence with 0.25% trypsin–EDTA. Cells were grown on 1.12 cm^2 0.4 μm pore polycarbonate membrane inserts in 12 mm × 12 transwell permeable support plates (Corning, NY, USA). Caco-2 cells were seeded onto membranes at 50,000 cells/well. Individual wells received 1.5 mL of culture medium at the bottom and 0.5 mL of medium was added to the top of inserts which was changed on alternate days. Confluent monolayers were used for permeability studies at ~21 days post seeding. Transepithelial electrical resistance (TEER) of Caco-2 monolayers was measured prior to all experiments using the EVOM volt-ohm-meter (Millicell-ERS; Millipore, USA) to ensure monolayer integrity. The TEER (Ω·cm^2) values of the cell monolayers were determined by the resistance (Ω) × effective membrane area (cm^2). TEER values were measured across each cell monolayer prior to beginning the experimentation and at the last sample collection time point. Transport studies were initiated by removing culture medium from the apical (A) and basolateral (B) sides of the cell monolayer. […] The effective permeability (Peff) (cm/s) was determined using Eq. 1: […]
# [2] = tested on: A549 orthotopic lung tumors; assay: A549 orthotopic lung cancer model; assay type: in vivo, athymic Nu/nu mice; settings: 100 mg/kg orally daily for 3 weeks
# Experimental: A549 cells were grown in F12K Medium containing 10% FBS and standard antibiotic mix at 5% CO2 and 37°C. For orthotopic lung tumor model, mice were anesthetized with Isoflurane and a 5 mm skin incision was made to the left chest, 5 mm below the scapula. Hamilton syringes (1 ml) with 28-gauge hypodermic needles were used to inject the cell inoculums through the sixth intercostal space into the left lung. The needle was quickly advanced to a depth of 3 mm and quickly removed after the injection of the A549 cells (2 million/mouse) suspended in 100 µL PBS (pH 7.4) into the lung parenchyma. For metastatic lung tumor models H1650 cells (2 million in 100 µL PBS) were intravenously administered to mice via tail vein. […] Only cell suspensions of >95% viability as determined by tryphan blue exclusion were used. Wounds from the incisions were closed with surgical skin clips. […] Drug treatment was started 2 weeks after the tumor cell implantation. BBR free drug or SD formulation was given orally at the dose of 100 mg/kg daily for 3 weeks. […] Body weights were monitored throughout the study. Animal survival rates were recorded during the study. The lung weights and tumor volumes were used for assessment of therapeutic activity of the treatments. After sacrificing the animals lung weights and tumor nodules were recorded in metastatic tumor models.
# [3] = parameters: method as in PMID 16956957, PMID 20634337; settings: oral ref 21, 22; cited from earlier work
# [4] = Oral pharmacokinetic study; assay type: in vivo, Sprague Dawley rats
# Experimental: Rats were fasted overnight before the start of the experiments and randomly divided into two experimental groups. […] Pharmacokinetic parameters were analyzed using non-compartmental techniques with WinNonlin® 5.0 software (Pharsight Corporation, Mountain View, CA, USA). SHAM analysis (i.e., Slope, Height, Area, and Moment) utilized plasma concentration-time data to estimate the area under the curve (AUC), apparent terminal elimination rate constant (λz), terminal elimination half-life (t1/2) and the area under the first moment of the plasma concentration–time curve (AUMC). The AUC was calculated for each rat using the piecewise log trapezoidal areas and extrapolated to infinity by dividing λz into the last measured plasma concentration (i.e. Clast/λz). From the values of AUC0_0-∞ and AUMC0-∞, the clearance (CL), mean residence time (MRT) and volume of distribution at tissue equilibrium (Vss) were calculated based on noncompartmental monoexponential assumptions as: CL = Dose/AUC, MRT≅AUMC/AUC and Vss = CL×MRT. The noncompartmental parameters were calculated for each rat before averaging dose groups. The pharmacokinetic parameters such as AUC, Cmax, t1/2, tmax, MRT, etc were compared between the free drug and SD formulations.
# [5] = Sprague Dawley, rat, plasma, po, 100 mg/kg orally
smiles,measurement,setting,value
"COc1ccc2cc3[n+](cc2c1OC)CCc1cc2c(cc1-3)OCO2.[Cl-] [BBR free drug, 5,6-dihydro-9,10-dimethoxy-benzo[g]-1,3-benzodioxolo[5,6-a]quinolizinium, chloride]","Papp A→B at 120 min, 100 µM",[1],~0.29 ×10⁻⁶ cm/s
same,decrease in tumor volumes compared to untreated control,[2],1.31 fold
same,lung tumor weights,[2],385.77 ± 63.42 mg
same,reduced tumor weights compared to control tumors,[2],1.40 fold
same,bioavailability,[3],less than 1%
same,CL,[4]; 100 mg/kg orally,2.034 ± 0.2813 mL/min/kg
same,AUMC (0-∞),"[4]; BBR, 100 mg/kg orally",5619.03±651.24 ng.h^2/ml
same,Vss,"[4]; BBR, 100 mg/kg orally",1.04839 ± 0.10635 L/kg
same,half-life,"[4]; Sprague Dawley, rat, plasma, po, 100 mg/kg, read-out: t½ (converted)",5.95 ± 0.47 h
same,MRT,[4]; [5],6.85 ± 1.68 h
same,Tmax,[4]; [5],1.41 ± 0.67 h
same,AUC(0-inf),"[4]; Sprague Dawley, rat, plasma, po, BBR, 100 mg/kg orally",819 ± 82 ng·h/mL
same,Cmax,"[4]; Sprague Dawley, rat, po, BBR, 100 mg/kg orally, plasma",147 ± 21.8 ng/mL
